Like-named read-outs stand apart in the source and are kept apart here.
Columns and labels:
Cbl-b = Cbl-b (Homo sapiens (Human), UniProt Q13191); assay: Cbl-b displacement assay (Cbl-b inhibition assay), Biological Example 1; assay type: binding
Experimental: Candidate compounds were evaluated for their ability to bind and inhibit Cbl-b, an E3 ubiquitin-protein ligase, as evidenced by their ability to displace a fluorophore-labeled probe (Example 59) bound to Cbl-b.
The ability of candidate compounds to displace a known inhibitor and thereby inhibit Cbl-b activity was measured by monitoring the interaction of Cbl-b with a fluorophore-labeled probe in the presence of the candidate compound. A truncated variant of Cbl-b (UniProt number Q13191; SEQ ID NO:1) containing an Avitag at its N-terminus was co-expressed with BirA biotin ligase and purified using a standard protocol (see Dou et al., Nature Structural and Molecular Biology, 8: 982-987, 2013; Avidity LLC).
Cbl-b Amino Acid Residues 36-427:
Fluorescently-labeled inhibitor probe was synthesized and tagged with BODIPY FL (Example 59). Cbl-b displacement assays were performed in a 384-well plate at room temperature in a 10 μL reaction volume by pre-incubating 0.5 nM Cbl-b or 0.125 nM Cbl-b (final concentration, indicated as “High” and “Low”, respectively) in an assay buffer containing 20 mM HEPES pH 7.5, 150 mM NaCl, 0.01% Triton X-100, 0.01% BSA and 0.5 mM TCEP in the presence of a candidate compound in 1% DMSO (final concentration) for 1 hour. After incubation in the presence of the candidate compound, the plate was incubated for an additional 1 hour in the presence of an approximate EC40 binding saturation consisting of 150 nM fluorescently-labeled inhibitor probe and 2 nM Streptavidin-Terbium (Cisbio) (final concentrations). Following the 1 hour incubation, the plates were read for TR-FRET signal at […] using an Envision plate reader (Perkin Elmer).

[1] = system: primary human total T-cells; assay: T-cell activation, IL-2 secretion, Biological Example 2; assay type: cell-based; settings: 48 hours, fold change over baseline; for fold induction at 0.3 µM: 0.3 μM inhibitor; for fold induction at 1 µM: 1 μM inhibitor; for fold induction at 3 µM: 3 μM inhibitor
[2] = system: primary human total T-cells; assay: T-cell activation, CD25 surface staining, Biological Example 2; assay type: cell-based; settings: 48 hours, fold change over baseline; for fold induction at 0.3 µM: 0.3 μM inhibitor; for fold induction at 1 µM: 1 μM inhibitor; for fold induction at 3 µM: 3 μM inhibitor
[3] = 0.125 nM Cbl-b final concentration (Low), read-out: Cbl-b activity IC50 (Low)
[4] = read-out: IC50 values in the Cbl-b inhibition assay of Biological Example 1
[5] = anti-CD3 and anti-CD28 co-stimulation
[6] = anti-CD3 and anti-CD28 co-stimulation, read-out: IL-2 secretion CD3/CD28 1 μM
[7] = anti-CD3 stimulation alone, read-out: IL-2 secretion CD3 1 μM
[8] = anti-CD3 and anti-CD28 co-stimulation, read-out: CD25 staining CD3/CD28 1 μM
[9] = anti-CD3 stimulation alone, read-out: CD25 staining CD3 1 μM

Cbl-b, sequence (Q13191 36-427): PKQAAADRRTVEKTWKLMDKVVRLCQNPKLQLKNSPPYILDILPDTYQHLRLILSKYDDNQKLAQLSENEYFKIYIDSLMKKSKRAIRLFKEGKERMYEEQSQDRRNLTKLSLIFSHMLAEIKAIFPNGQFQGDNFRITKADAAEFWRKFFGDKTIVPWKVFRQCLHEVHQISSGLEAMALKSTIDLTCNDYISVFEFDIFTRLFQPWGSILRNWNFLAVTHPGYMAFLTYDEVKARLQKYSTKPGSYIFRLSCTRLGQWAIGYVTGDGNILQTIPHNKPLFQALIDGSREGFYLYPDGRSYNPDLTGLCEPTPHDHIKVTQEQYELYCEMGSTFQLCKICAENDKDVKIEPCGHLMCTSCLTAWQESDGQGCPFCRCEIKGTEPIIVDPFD

Row | SMILES | IC50 (Cbl-b; [3]) [nM] | IC50 (Cbl-b; [4]) [nM] | fold induction at 0.3 µM [1, 5] | fold induction at 1 µM [1, 6] | fold induction at 1 µM [1, 7] | fold induction at 3 µM ([1]; anti-CD3 stimulation alone) | fold induction at 0.3 µM [2, 5] | fold induction at 1 µM [2, 8] | fold induction at 1 µM [2, 9] | fold induction at 3 µM ([2]; anti-CD3 stimulation alone)
1 | Cn1cnnc1C[C@]1(c2cccc(N3Cc4c(cc(CNC5CC6(C5)CC6(F)F)cc4C(F)(F)F)C3=O)c2)C[C@H](C#N)C1 (stereo partly shown) [Compound 23, (1r,3r)-3-(3-(6-(((1,1-difluorospiro[2.3]hexan-5-yl)amino)methyl)-1-oxo-4-(trifluoromethyl)isoindolin-2-yl)phenyl)-3-((4-methyl-4H-1,2,4-triazol-3-yl)methyl)cyclobutane-1-carbonitrile] | 1 to 2 | 1 to 2 | 15 to 20 | 15 to 20 | 0.4 to 0.85 | 0.4 to 0.85 | 1.24 to 1.39 | 1.24 to 1.39 | 1 to 1.15 | 1 to 1.15
2 | Cn1cnnc1C[C@]1(c2cccc(N3Cc4c(cc(CN5CCOCC(CO)C5)cc4C(F)(F)F)C3=O)c2)C[C@H](C#N)C1 (stereo partly shown) [Compound 44, (1r,3r)-3-(3-(6-((6-(hydroxymethyl)-1,4-oxazepan-4-yl)methyl)-1-oxo-4-(trifluoromethyl)isoindolin-2-yl)phenyl)-3-((4-methyl-4H-1,2,4-triazol-3-yl)methyl)cyclobutane-1-carbonitrile] | 1 to 2 | 1 to 2 | ≤ 15 | ≤ 15 | < 0.4 | < 0.4 | ≤ 1.24 | ≤ 1.24 | ≤ 1 | 1 to 1.15
3 | Cn1cnnc1C[C@]1(c2cccc(N3Cc4c(cc(CN5CC6COC(C6)C5)cc4C(F)(F)F)C3=O)c2)C[C@H](C#N)C1 (stereo partly shown) [Compound 38, (1r,3r)-3-(3-(6-((6-oxa-3-azabicyclo[3.2.1]octan-3-yl)methyl)-1-oxo-4-(trifluoromethyl)isoindolin-2-yl)phenyl)-3-((4-methyl-4H-1,2,4-triazol-3-yl)methyl)cyclobutane-1-carbonitrile] | 5 to 20 | 5 to 20 | ≤ 15 | 15 to 20 | 0.4 to 0.85 | > 0.85 | > 1.39 | > 1.39 | > 1.15 | > 1.15
4 | C[C@@H]1C[C@H](C)CN(Cc2cc3c(c(C(F)(F)F)c2)CN(c2cccc([C@]4(Cc5nncn5C)C[C@@H](C#N)C4)c2)C3=O)C1 [Compound 18, (1R,3r)-3-(3-(6-(((3S,5R)-3,5-dimethylpiperidin-1-yl)methyl)-1-oxo-4-(trifluoromethyl)isoindolin-2-yl)phenyl)-3-((4-methyl-4H-1,2,4-triazol-3-yl)methyl)cyclobutane-1-carbonitrile] | < 1 | – | > 20 | > 20 | > 0.85 | > 0.85 | 1.24 to 1.39 | 1.24 to 1.39 | 1 to 1.15 | ≤ 1
5 | Cn1cnnc1C[C@]1(c2cccc(N3Cc4c(cc(CN5CCC6C(C5)C6(F)F)cc4C(F)(F)F)C3=O)c2)C[C@H](C#N)C1 (stereo partly shown) [Compound 27, (1r,3r)-3-(3-(6-((7,7-difluoro-3-azabicyclo[4.1.0]heptan-3-yl)methyl)-1-oxo-4-(trifluoromethyl)isoindolin-2-yl)phenyl)-3-((4-methyl-4H-1,2,4-triazol-3-yl)methyl)cyclobutane-1-carbonitrile] | 2 to 5 | – | ≤ 15 | ≤ 15 | < 0.4 | 0.4 to 0.85 | ≤ 1.24 | ≤ 1.24 | ≤ 1 | ≤ 1
6 | Cn1cnnc1C[C@]1(c2cccc(N3Cc4c(cc(CNC5CCC(F)(F)C5)nc4C4CC4)C3=O)c2)C[C@H](C#N)C1 (stereo partly shown) [Compound 39, (1r,3r)-3-(3-(4-cyclopropyl-6-(((3,3-difluorocyclopentyl)amino)methyl)-1-oxo-1,3-dihydro-2H-pyrrolo[3,4-c]pyridin-2-yl)phenyl)-3-((4-methyl-4H-1,2,4-triazol-3-yl)methyl)cyclobutane-1-carbonitrile] | 1 to 2 | 1 to 2 | ≤ 15 | ≤ 15 | < 0.4 | < 0.4 | 1.24 to 1.39 | ≤ 1.24 | ≤ 1 | ≤ 1
7 | Cn1cnnc1C[C@]1(c2cccc(N3Cc4c(cc(CN5CCCOC(CO)C5)cc4C(F)(F)F)C3=O)c2)C[C@H](C#N)C1 (stereo partly shown) [Compound 41, (1r,3r)-3-(3-(6-((2-(hydroxymethyl)-1,4-oxazepan-4-yl)methyl)-1-oxo-4-(trifluoromethyl)isoindolin-2-yl)phenyl)-3-((4-methyl-4H-1,2,4-triazol-3-yl)methyl)cyclobutane-1-carbonitrile] | 2 to 5 | – | ≤ 15 | ≤ 15 | < 0.4 | < 0.4 | 1.24 to 1.39 | > 1.39 | ≤ 1 | 1 to 1.15
8 | CC1CCCN(Cc2cc3c(c(C(F)(F)F)c2)CN(c2cccc([C@]4(Cc5nncn5C)C[C@@H](C#N)C4)c2)C3=O)CC1 (stereo partly shown) [Compound 13, (1r,3r)-3-((4-methyl-4H-1,2,4-triazol-3-yl)methyl)-3-(3-(6-((4-methylazepan-1-yl)methyl)-1-oxo-4-(trifluoromethyl)isoindolin-2-yl)phenyl)cyclobutane-1-carbonitrile] | 2 to 5 | – | 15 to 20 | 15 to 20 | 0.4 to 0.85 | 0.4 to 0.85 | 1.24 to 1.39 | 1.24 to 1.39 | > 1.15 | 1 to 1.15
9 | CC1CCN(Cc2cc3c(c(C(F)(F)F)c2)CN(c2cccc([C@]4(Cc5nncn5C)C[C@@H](C#N)C4)c2)C3=O)CC(C)O1 (stereo partly shown) [Compound 34, (1r,3r)-3-(3-(6-((2,7-dimethyl-1,4-oxazepan-4-yl)methyl)-1-oxo-4-(trifluoromethyl)isoindolin-2-yl)phenyl)-3-((4-methyl-4H-1,2,4-triazol-3-yl)methyl)cyclobutane-1-carbonitrile] | 2 to 5 | – | ≤ 15 | ≤ 15 | < 0.4 | 0.4 to 0.85 | ≤ 1.24 | ≤ 1.24 | ≤ 1 | ≤ 1
10 | C[C@@H]1CN(Cc2cc3c(c(C4CC4)n2)CN(c2cccc([C@]4(Cc5nncn5C)C[C@@H](C#N)C4)c2)C3=O)CCC1(F)F [Compound 42, (1R,3r)-3-(3-(4-cyclopropyl-6-(((R)-4,4-difluoro-3-methylpiperidin-1-yl)methyl)-1-oxo-1,3-dihydro-2H-pyrrolo[3,4-c]pyridin-2-yl)phenyl)-3-((4-methyl-4H-1,2,4-triazol-3-yl)methyl)cyclobutane-1-carbonitrile] | 2 to 5 | – | 15 to 20 | > 20 | > 0.85 | > 0.85 | ≤ 1.24 | ≤ 1.24 | 1 to 1.15 | 1 to 1.15

— patent publication US11530229B2, “Cyano cyclobutyl compounds for CBL-B inhibition and uses thereof” (Nurix Therapeutics, Inc., priority 2019, dated 2022)
